Like-named read-outs stand apart in the source and are kept apart here.
Key:
Zucker Obese Rats = experiment: Blood glucose lowering in diabetic rats; assay type: in vivo, rat; details: oral gavage once daily
Experimental: [The source words this procedure for another organism and reports this organism under the same test.] Male Zucker lean rats, 24-28 weeks of age, are fed high fat chow (AIN-93-M formulation) for two weeks to elevate blood glucose. At blood glucose concentrations over 160 mg/dl, a three day pre-study baseline is established by measuring blood glucose daily (at 0700-0800 hrs) via tail vein blood extraction and measurement using a glucometer. Animals are segregated into groups of 5 based on weights and baseline glucose. Compounds are then administered to the animals at various concentrations (30 mg compound/kg body weight or 10 mg compound/kg body weight). The drugs were suspended in 0.5% carboxymethylcellulose (Sigma) in a total gavage volume of 250 μL. Animals are dosed for seven days, once daily in the morning after blood glucose and weight determination. At the end of the seven-day period, the animals are euthanized by exsanguination after isofluorane anesthesia.

[1] = tested on: primary human subcutaneous preadipocytes; experiment: Human adipocyte differentiation (oil red-O staining); assay type: cell-based; details: human adipocyte differentiation in presence of insulin and dexamethasone
Experimental: Assays are carried out on primary human subcutaneous preadipocytes. Preadipocytes are inoculated at high density in preadipocyte medium (DME/F-10, 1:1, (v/v) containing 10% fetal calf serum) and maintained overnight for attachment. Drug treatment is initiated the second day by changing to serum free medium containing test compounds. The basal medium, which is used as the negative control, contains DME/F-10, biotin (33 μM), pantothenate (17 μM), insulin (100 nM), and dexamethasone (1 μM) and BRL 49653 is included as a positive control. The culture is maintained for 14 days with the compound treatment during the first five days. At the end of the culture, cells are fixed in 5% formalin and stained with oil red-O dye. The dye is extracted by isopropanol and quantitated by measure the optical density at 500 nm. EC50 values found in Table 1 reflect the human adipocyte differentiation of the compound in presence of insulin and dexamethasone.

[2] = target: T1, LBD (ligand binding domain) of the PPAR-γ receptor (Homo sapiens, UniProt P37231); experiment: Binding to PPAR-γ receptor (inhibition of 3H-PPAR-γ ligand binding to LBD); details: 8 nM 3H-PPAR ligand, 210 ng LBD/well, 2 hours
T1 sequence (P37231 238-503 limits assumed): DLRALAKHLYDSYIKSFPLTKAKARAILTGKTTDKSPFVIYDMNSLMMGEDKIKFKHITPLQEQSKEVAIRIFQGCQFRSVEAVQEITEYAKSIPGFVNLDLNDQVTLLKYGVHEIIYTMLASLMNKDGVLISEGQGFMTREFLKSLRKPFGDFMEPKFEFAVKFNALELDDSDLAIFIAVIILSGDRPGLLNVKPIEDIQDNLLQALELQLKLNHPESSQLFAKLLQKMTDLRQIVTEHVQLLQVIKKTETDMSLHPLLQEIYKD
Experimental: Binding to PPAR-γ Receptor Compounds are assayed for their ability to inhibit the binding of 3H-PPAR-γ ligand to the LBD (ligand binding domain) of the PPAR-γ receptor. Compounds are tested at 4 concentrations (1 μM to 1 nM) in triplicate. Compounds are incubated with H3-PPAR ligand (8 nM final concentration) and LBD (210 ng/assay well) in assay buffer (50 mM Tris pH8.0. 50 mM KCL, 2 mM EDTA, 0.3% CHAPS, 0.1 mg/ml BSA, 10 mM DTT) for 2 hours with gentle shaking. Non-specific binding is measured in the presence of 10 μM excess cold competitor. Bound ligand is separated using gel filtration plates (Edge Biosystems 31909) and captured on 96 well Wallac MicroBeta plates (1450-5150 by centrifugation for 5 minutes at 2500 rpm. Radioactivity is measured in a Wallac Micro Beta counter. Table 2 gives the IC50 values of compounds 1 and 2.

[3] = Treatment Day 0 (baseline), 30 or 10 mg/kg (dose not given)
[4] = 14 day culture, compound first five days, read-out: EC50 Differentiation
[5] = read-out: EC50 Inhibition of Differentiation

O=C(NCCCc1ccccc1)c1ccc(C[C@H](NCc2ccccc2)C(=O)O)cc1 [Compound 1, (2S)-2-[benzylamino]-3-{4-[N-(3-phenylpropyl)carbamoyl]phenyl}propanoic acid]
Blood Glucose (mg/dl ± SEM) (Zucker Obese Rats; [3]): 133 ± 11 mg/dL | Blood Glucose (mg/dl ± SEM) (Zucker Obese Rats; Treatment Day 1): 134 ± 11 mg/dL | Blood Glucose (mg/dl ± SEM) (Zucker Obese Rats; Treatment Day 2): 105 ± 7 mg/dL | Blood Glucose (mg/dl ± SEM) (Zucker Obese Rats; Treatment Day 3): 105 ± 4 mg/dL | Blood Glucose (mg/dl ± SEM) (Zucker Obese Rats; Treatment Day 4): 97 ± 16 mg/dL | Blood Glucose (mg/dl ± SEM) (Zucker Obese Rats; Treatment Day 5): 113 ± 3 mg/dL | Blood Glucose (mg/dl ± SEM) (Zucker Obese Rats; Treatment Day 6): 105 ± 6 mg/dL | Blood Glucose (mg/dl ± SEM) (Zucker Obese Rats; Treatment Day 7): 104 ± 8 mg/dL | EC50 [1, 4]: 150 nM | EC50 [1, 5]: > 10000 nM | IC50 [2]: 1700 nM

CN(C(=O)c1ccc(C[C@H](NCc2ccccc2)C(=O)O)cc1)C1CCCC1Sc1ccccc1 (stereo partly drawn) [Compound 2, (2S)-3-{4-[N-methyl-N(2-phenylthiocyclopentyl)carbamoyl]phenyl}-2-[benzylamino]propanoic acid]
Blood Glucose (mg/dl ± SEM) (Zucker Obese Rats; [3]): 133 ± 11 mg/dL | Blood Glucose (mg/dl ± SEM) (Zucker Obese Rats; Treatment Day 1): 136 ± 5 mg/dL | Blood Glucose (mg/dl ± SEM) (Zucker Obese Rats; Treatment Day 2): 104 ± 1 mg/dL | Blood Glucose (mg/dl ± SEM) (Zucker Obese Rats; Treatment Day 3): 100 ± 9 mg/dL | Blood Glucose (mg/dl ± SEM) (Zucker Obese Rats; Treatment Day 4): 93 ± 6 mg/dL | Blood Glucose (mg/dl ± SEM) (Zucker Obese Rats; Treatment Day 5): 100 ± 4 mg/dL | Blood Glucose (mg/dl ± SEM) (Zucker Obese Rats; Treatment Day 6): 101 ± 5 mg/dL | Blood Glucose (mg/dl ± SEM) (Zucker Obese Rats; Treatment Day 7): 92 ± 6 mg/dL | EC50 [1, 4]: 175 nM | EC50 [1, 5]: > 10000 nM | IC50 [2]: 3300 nM

CN(CCOc1ccc(CC2SC(=O)NC2=O)cc1)c1ccccn1 (stereo not drawn) [Rosiglitizone, reference compound]
EC50 [1, 4]: 100 nM | EC50 [1, 5]: > 10000 nM
